The source of these data is article PMC8399180, “Bioactive Polyketide and Diketopiperazine Derivatives from the Mangrove-Sediment-Derived Fungus Aspergillus sp. SCSIO41407” (Molecules, 2021).

The target of data set [1] is acetylcholinesterase (AChE) (Homo sapiens, UniProt P22303). Put plainly: AChE inhibitory activity (modified Ellman method). The class given is biochemical. The settings on record: 0.1 U/mL AChE, pH 8.0, 30 °C; read-out: AChE inhibition IC50. On the procedure: AChE inhibitory activity was evaluated in vitro according to the modified Ellman method. Briefly, 0.1 U/mL AChE solution was prepared by dissolving in phosphate buffer (pH 8.0). The test sample and enzyme buffer were mixed in 96-well plates and incubated for 20 min at 30 °C. Then, 5,5′-dithiobis (2-nitrobenzoic acid) and acetylthiocholine iodide were added, and the enzyme reaction was allowed to proceed for 30 min at 30 °C. AChE activity was determined by measuring the degradation of acetylthiocholine iodide to thiocholine and acetic acid at 405 nm using a microplate reader.
Chain of acetylcholinesterase (AChE) (P22303 32-614, species assumed): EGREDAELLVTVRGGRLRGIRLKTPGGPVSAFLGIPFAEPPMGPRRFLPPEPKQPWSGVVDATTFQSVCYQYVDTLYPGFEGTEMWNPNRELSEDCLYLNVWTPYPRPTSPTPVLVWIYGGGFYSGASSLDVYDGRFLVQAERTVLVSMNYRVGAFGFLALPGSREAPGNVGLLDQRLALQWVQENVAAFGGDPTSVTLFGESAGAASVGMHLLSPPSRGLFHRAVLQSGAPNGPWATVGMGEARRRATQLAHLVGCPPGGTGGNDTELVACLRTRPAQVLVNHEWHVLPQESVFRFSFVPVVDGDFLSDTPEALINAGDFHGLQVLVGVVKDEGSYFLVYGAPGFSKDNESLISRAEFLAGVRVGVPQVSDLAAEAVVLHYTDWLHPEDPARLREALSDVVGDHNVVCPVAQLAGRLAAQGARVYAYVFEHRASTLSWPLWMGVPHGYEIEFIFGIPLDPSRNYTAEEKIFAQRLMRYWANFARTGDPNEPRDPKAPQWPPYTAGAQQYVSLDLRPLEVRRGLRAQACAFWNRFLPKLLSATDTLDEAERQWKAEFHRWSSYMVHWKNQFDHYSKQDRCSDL

Data set [2] concerns LPS-induced NF-κB activation in RAW264.7 cells. Briefly: Inhibition of LPS-induced NF-κB activation in RAW264.7 cells (luciferase reporter gene assay). The note with it: for Inhibitory activity against LPS-induced NF-κB activation: compounds at 10 μM, 5 μg/mL LPS for 8 h; for IC50: Mus musculus, luciferase reporter. The class given is cell-based. On the procedure:
The inhibitory activities of LPS-induced NF-κB activation in RAW264.7 cells was evaluated as detected by luciferase reporter gene assay as described previously. In brief, the RAW264.7 cells stably transfected with a luciferase reporter gene were plated in 96-well plates and then pretreated with testd compounds (10 μM) and BAY11-7082 (NF-κB inhibitor as positive control, 5 μM, Sigma-Aldrich) for 30 min, followed by 5 μg/mL LPS stimulation for 8 h. Cells were harvested, and luciferase activities of the triplicate tests were measured using the luciferase assay system (Promega, Madison, WI, USA).

A short description of data set [3]: Cytotoxicity against A549 cell line (MTT method). The note with it: human, A549 cells, read-out: Cytotoxic Activities A549 (IC50). The format is cell-based. A general note: Formazan colour is commonly taken as a measure of viable cells.
Data set [4] has as its system methicillin-resistant Staphylococcus aureus (MRSA). Put plainly: Antibacterial activity against MRSA (broth microdilution). The format is cell-based. The protocol: The cytotoxicity of 1–8 and 10–15 against the A549 cell line was preliminarily evaluated via the MTT method as reported in our previous study, and the antibacterial activities of 1–15 against six bacterial strains, Acinetobacter baumannii (ATCC 19606), Staphylococcus aureus (ATCC 29213), Enterococcus faecalis (ATCC 29212), Klebsiella pneumoniae (ATCC 13883), MRSA, and Escherichia coli (ATCC 25922), were evaluated using a modification of the broth microdilution method.
(Broth dilution looks for growth in wells or tubes with falling amounts of substance.)

Data set [5] has as its system RANKL-induced osteoclast differentiation in bone marrow macrophages cells (BMMCs). Put plainly: RANKL-induced osteoclast differentiation in BMMCs (TRAP staining). The class given is cell-based. The settings on record: 5 μM, 3 days, TRAP-positive multinucleated cells. On the procedure: Then, the cells were fixed and stained for TRAP activity and the images were photographed using an inverted microscope (Nikon, Tokyo, Japan). Data are expressed as the mean ± SD and analyzed using GraphPad Prism 7.0 software (GraphPad, San Diego, CA, USA). Statistical differences among groups were performed using one-way analysis of variance with a Bonferroni post-hoc test. A p-value of < 0.05 was considered statistically significant.

Values after ≈ are worked out from the molar mass of the structure shown.

What is called IC50 is the concentration at which inhibition is half-maximal. For the molecule `C/C=C/C=C/CCc1c(O)cc(CC=C(C)C)c(O)c1C=O` [Compound 4, isodihydroauroglaucin], the IC50 in data set [1] amounted to 490 µM.
For the molecule `C=CC(C)(C)c1[nH]c2ccccc2c1/C=C1\NC(=O)C(=O)NC1=O` [Compound 10, neoechinulin E], the “Inhibitory activity against LPS-induced NF-κB activation” value (from here on “Inhibitory activity”) in data set [2] is on record as “obvious inhibitory activities”.
With `CCCCC/C=C/c1c(O)cc(CC=C(C)C)c(O)c1C=O` [Compound 5, tetrahydroauroglaucin], the IC50 in data set [1] came to 39.9 µM.
As to `CCCCCCCc1c(O)cc(CC=C(C)C)c(O)c1C=O` [Compound 3, flavoglaucin], the IC50 in data set [1] amounted to 23.9 µM; in data set [3], 22.2 µM.
Regarding Gentamycin [reference compound], in data set [4], the “Antibacterial Activities MRSA (MIC, μM)” value came out at 1.4 µM.
With `C/C=C/C(=O)Cc1cc(O)c(C)c(O)c1C=O` [Compound 1, (E)-2,4-dihydroxy-3-methyl-6-(2-oxopent-3-en-1-yl) benzaldehyde], the “Inhibitory activity” value in data set [2] is given as “obvious inhibitory activities”.
As to `CCC/C=C/C=C/c1c(O)cc(CC=C(C)C)c(O)c1C=O` [Compound 6, dihydroauroglaucin], in data set [1], the IC50 was determined as 18.6 µM.
Consider `C=CC(C)(C)c1[nH]c2ccccc2c1/C=C1\NC(=O)C(C)(OC)NC1=O` (stereo not drawn) [Compound 11, variecolorin H], for which the “Effect on RANKL-induced osteoclast differentiation” value in data set [5] is “suppressed RANKL-induced osteoclast differentiation”. Further, in data set [2], half-maximal inhibition (IC50) was put at 19.2 µM and the “Inhibitory activity” value was “obvious inhibitory activities”.
As to `C=CC(C)(C)c1[nH]c2ccccc2c1/C=c1\[nH]c(=O)c(=C)[nH]c1=O` [Compound 14, neoechinulin B], in data set [5], the “Effect on RANKL-induced osteoclast differentiation” value is given as “suppressed RANKL-induced osteoclast differentiation”. Further, in data set [2], the IC50 is 8.7 µM and the “Inhibitory activity” value is listed as “obvious inhibitory activities”.
As a reminder, the MIC is the least concentration at which growth counts as inhibited. In the case of `Cc1cc(=O)c2c(O)c(C)c(O)cc2o1` [Compound 2, eugenitol], in data set [4] (Staphylococcus aureus, read-out: Antibacterial Activities MRSA (MIC)), the minimum inhibitory concentration (MIC) is 485 µM (≈ 100 µg/mL).
